Results: the Kinase Knowledgebase extract (Sharma et al. 2016)
pIC50: −log10 of the molar value. Values belong to the compound of their own block, whether it stands above or below them.

What was measured:
Assay in all cases: Enzyme Assay
[1] = target: PIK3CB (Human) (UniProt P42338)
[2] = target: PIK3CD (Human) (UniProt O00329)
[3] = target: PIK3CG (human) (UniProt P48736)
Chain of PIK3CG (human) (P48736 whole entry, looked up): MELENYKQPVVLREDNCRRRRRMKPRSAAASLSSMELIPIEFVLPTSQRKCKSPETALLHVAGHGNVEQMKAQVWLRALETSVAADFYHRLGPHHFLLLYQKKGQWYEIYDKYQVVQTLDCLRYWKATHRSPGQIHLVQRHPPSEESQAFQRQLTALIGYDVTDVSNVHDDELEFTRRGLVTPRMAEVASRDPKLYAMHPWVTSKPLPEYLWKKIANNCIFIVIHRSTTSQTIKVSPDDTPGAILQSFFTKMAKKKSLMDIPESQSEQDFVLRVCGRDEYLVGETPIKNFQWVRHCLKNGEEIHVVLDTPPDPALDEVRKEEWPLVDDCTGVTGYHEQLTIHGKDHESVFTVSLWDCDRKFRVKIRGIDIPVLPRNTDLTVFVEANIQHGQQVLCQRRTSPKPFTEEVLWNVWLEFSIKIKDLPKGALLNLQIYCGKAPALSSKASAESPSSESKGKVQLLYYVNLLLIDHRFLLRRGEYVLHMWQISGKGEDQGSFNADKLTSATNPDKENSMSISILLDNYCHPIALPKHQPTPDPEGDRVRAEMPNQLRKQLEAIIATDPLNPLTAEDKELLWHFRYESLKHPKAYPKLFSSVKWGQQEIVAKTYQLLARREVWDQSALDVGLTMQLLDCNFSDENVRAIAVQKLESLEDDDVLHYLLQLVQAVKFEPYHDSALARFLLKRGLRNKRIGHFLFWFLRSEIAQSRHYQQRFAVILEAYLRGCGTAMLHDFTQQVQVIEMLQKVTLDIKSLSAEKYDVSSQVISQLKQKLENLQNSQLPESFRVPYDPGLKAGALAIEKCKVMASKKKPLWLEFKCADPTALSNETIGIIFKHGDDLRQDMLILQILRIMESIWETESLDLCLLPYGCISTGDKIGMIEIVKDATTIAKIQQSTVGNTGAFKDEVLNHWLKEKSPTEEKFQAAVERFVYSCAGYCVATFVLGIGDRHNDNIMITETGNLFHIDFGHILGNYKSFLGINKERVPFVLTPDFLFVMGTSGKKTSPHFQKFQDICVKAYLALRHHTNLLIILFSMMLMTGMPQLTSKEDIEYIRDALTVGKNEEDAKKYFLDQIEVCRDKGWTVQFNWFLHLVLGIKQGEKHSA

Chain of PIK3CB (Human) (P42338 whole entry, looked up): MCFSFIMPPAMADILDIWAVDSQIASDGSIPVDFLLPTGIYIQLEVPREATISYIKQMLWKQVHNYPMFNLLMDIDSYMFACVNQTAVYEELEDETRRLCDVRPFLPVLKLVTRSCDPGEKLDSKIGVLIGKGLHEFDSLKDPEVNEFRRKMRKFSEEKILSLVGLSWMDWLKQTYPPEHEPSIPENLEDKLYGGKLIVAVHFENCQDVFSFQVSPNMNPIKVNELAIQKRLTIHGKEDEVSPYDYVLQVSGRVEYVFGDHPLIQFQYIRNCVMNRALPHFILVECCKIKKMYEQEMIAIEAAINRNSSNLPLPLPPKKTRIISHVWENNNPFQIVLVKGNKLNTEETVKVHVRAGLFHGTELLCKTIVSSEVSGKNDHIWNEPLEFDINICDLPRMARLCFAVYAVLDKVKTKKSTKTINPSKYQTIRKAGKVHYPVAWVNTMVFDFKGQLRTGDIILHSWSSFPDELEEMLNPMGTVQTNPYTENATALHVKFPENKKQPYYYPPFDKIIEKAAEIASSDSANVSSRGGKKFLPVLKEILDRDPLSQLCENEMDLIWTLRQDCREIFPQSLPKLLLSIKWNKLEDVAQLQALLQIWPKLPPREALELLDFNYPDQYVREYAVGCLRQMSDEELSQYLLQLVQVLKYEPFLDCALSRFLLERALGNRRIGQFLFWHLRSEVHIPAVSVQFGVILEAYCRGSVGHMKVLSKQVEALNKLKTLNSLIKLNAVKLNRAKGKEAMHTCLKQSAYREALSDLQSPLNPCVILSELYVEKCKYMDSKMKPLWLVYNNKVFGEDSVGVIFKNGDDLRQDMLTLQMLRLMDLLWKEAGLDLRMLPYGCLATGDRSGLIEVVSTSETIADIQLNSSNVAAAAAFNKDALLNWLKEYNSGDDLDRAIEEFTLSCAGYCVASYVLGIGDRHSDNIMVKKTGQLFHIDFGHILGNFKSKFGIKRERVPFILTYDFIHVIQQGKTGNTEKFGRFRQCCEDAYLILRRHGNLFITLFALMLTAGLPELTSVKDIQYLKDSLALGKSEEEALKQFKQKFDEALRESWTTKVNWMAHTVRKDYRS
Chain of PIK3CD (Human) (O00329 whole entry, looked up): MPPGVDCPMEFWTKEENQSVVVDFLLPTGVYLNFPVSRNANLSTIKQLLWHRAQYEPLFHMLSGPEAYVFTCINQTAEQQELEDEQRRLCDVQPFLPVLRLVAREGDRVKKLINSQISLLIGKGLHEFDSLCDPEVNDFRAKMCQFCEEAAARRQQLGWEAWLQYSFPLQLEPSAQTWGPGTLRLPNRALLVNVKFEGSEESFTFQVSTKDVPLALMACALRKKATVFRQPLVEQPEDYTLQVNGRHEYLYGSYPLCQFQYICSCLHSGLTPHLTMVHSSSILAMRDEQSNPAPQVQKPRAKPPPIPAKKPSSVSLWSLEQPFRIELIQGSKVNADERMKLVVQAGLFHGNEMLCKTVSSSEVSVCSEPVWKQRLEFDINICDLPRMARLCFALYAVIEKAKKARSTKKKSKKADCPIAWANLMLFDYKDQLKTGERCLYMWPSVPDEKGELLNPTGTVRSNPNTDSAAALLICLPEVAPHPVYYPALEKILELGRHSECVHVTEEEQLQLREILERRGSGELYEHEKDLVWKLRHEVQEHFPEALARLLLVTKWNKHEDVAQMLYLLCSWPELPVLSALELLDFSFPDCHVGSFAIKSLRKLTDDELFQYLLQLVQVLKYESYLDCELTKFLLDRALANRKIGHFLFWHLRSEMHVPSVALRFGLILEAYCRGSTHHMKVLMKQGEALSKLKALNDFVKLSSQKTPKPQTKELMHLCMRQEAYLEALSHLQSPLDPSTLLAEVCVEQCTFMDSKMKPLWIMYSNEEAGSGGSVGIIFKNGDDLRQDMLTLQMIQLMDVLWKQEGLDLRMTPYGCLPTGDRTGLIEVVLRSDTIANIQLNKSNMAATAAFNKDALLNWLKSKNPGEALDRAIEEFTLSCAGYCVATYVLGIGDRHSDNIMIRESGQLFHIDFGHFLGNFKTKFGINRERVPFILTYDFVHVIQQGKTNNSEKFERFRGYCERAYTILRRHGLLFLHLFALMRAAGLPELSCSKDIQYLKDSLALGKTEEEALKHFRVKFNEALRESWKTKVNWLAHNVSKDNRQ

SMILES: Nc1nc(N)c(Cl)c(N[C@H](c2nc3c(Cl)cc(F)cc3c(=O)n2-c2cc[nH]n2)C2CC2)n1
- pIC50 [3]: < 5.00

SMILES: CC[C@H](Nc1ncnc2[nH]cc(F)c12)c1nc2c(Cl)ccc(Cl)c2c(=O)n1-c1cc[nH]n1
- pIC50 [2]: 8.52

SMILES: Cc1c[nH]nc1-n1c([C@@H](NC2=NC(N)=NC3=NN=C(Br)C32)C2CC2)nc2cccc(Cl)c2c1=O (stereo partly drawn)
- pIC50 [3]: < 5.00

SMILES: C[C@H](Nc1nc(N)nc(C(F)F)c1Cl)c1nc2c(F)c(F)ccc2c(=O)n1-c1cc[nH]n1
- pIC50 [1]: < 5.00

SMILES: Nc1nc(N)c(Cl)c(N[C@H](c2nc3cccc(Cl)c3c(=O)n2-c2cc[nH]n2)C2CCC2)n1
- pIC50 [3]: < 5.00

SMILES: C[C@H](Nc1nc(N)nc(C(F)F)c1Cl)c1nc2cc(F)cc(F)c2c(=O)n1-c1cc[nH]n1
- pIC50 [1]: < 5.00

SMILES: CC(C)Cc1cc(-n2c([C@H](C)Nc3ncnc(N)c3C#N)nc3cccc(Cl)c3c2=O)n[nH]1
- pIC50 [3]: < 5.00

The remaining lines, values ahead:

- pIC50 [1]: 8.40
- pIC50 [2]: 8.05
- pIC50 [3]: < 5.00
SMILES: C[C@H](Nc1nc(N)nc(N)c1C#N)c1nc2c(C(F)F)cccc2c(=O)n1-c1cc[nH]n1

- pIC50 [2]: 6.85
- pIC50 [3]: 5.03
SMILES: C[C@H](Nc1nc(N)nc(N)c1C#N)c1nc2ccc(Cl)cc2c(=O)n1-c1cc[nH]n1

- pIC50 [3]: 5.00
SMILES: CC(C)[C@H](Nc1nc(N)nc(N)c1Cl)c1nc2cccc(Cl)c2c(=O)n1-c1cc[nH]n1
